Test results as given in US20260256792A1, “TREATMENT OF CHRONIC SPONTANEOUS URTICARIA BY ADMINISTERING (R)-2-[3-[4-AMINO-3-(2-FLUORO-4-PHENOXY-PHENYL)PYRAZOLO[3,4-D]PYRIMIDIN-1-YL]PIPERIDINE-1-CARBONYL]-4-METHYL-4-[4-(OXETAN-3-YL)PIPERAZIN-1-YL]PENT-2-ENENITRILE” (priority 2023, published 2026).

System: angioedema in CSU patients
Assay: Phase 2 CSU study: angioedema activity score over 7 days (AAS7)
Assay type: in vivo, human
Parameters: AAS7, Median / AAS7 Change from baseline, Median: scale not given here
Settings: Omalizumab-Naïve Population
Excerpt: The study comprises a 12 week, randomized, double-blind, placebo-controlled, multi-center, dose-ranging efficacy and safety phase, followed by a 40 week open label extension (OLE) phase (see FIG. 1). The study consists of three phases and an optional OLE phase. […] The weekly angioedema activity score (AAS7) was proposed as a tertiary endpoint. […] Patients were to complete the AAS using the e-diary. The e-diary was to be used once daily on the same time of each day recording of participant's answers to the angioedema activity score over 7 days (AAS7) questionnaire.

Which results are given for `CC(C)(C=C(C#N)C(=O)N1CCC[C@@H](n2nc(-c3ccc(Oc4ccccc4)cc3F)c3c(N)ncnc32)C1)N1CCN(C2COC2)CC1` [rilzabrutinib, (R)-2-[3-[4-amino-3-(2-fluoro-4-phenoxy-phenyl)pyrazolo[3,4-d]pyrimidin-1-yl]piperidine-1-carbonyl]-4-methyl-4-[4-(oxetan-3-yl)piperazin-1-yl]pent-2-enenitrile]?
AAS7, Median (400 mg BID, Week 10): 0.00; AAS7 Change from baseline, Mean (SD) (400 mg BID, Week 10): −29.84 (25.74); AAS7 Change from baseline, Median (400 mg BID, Week 10): −24.00; AAS7 Percent change from baseline, Mean (SD) (400 mg BID, Week 10): −45.78 (130.13) %; AAS7 Percent change from baseline, Median (400 mg BID, Week 10): −100.00%; AAS7, Median (400 mg BID, Week 11): 0.00; AAS7 Change from baseline, Mean (SD) (400 mg BID, Week 11): −35.05 (24.68); AAS7 Change from baseline, Median (400 mg BID, Week 11): −29.17; AAS7 Percent change from baseline, Mean (SD) (400 mg BID, Week 11): −73.13 (48.67) %; AAS7 Percent change from baseline, Median (400 mg BID, Week 11): −100.00%; AAS7, Median (400 mg BID, Week 12): 0.00; AAS7 Change from baseline, Mean (SD) (400 mg BID, Week 12): −35.73 (26.59); AAS7 Change from baseline, Median (400 mg BID, Week 12): −37.00; AAS7 Percent change from baseline, Mean (SD) (400 mg BID, Week 12): −76.62 (36.34) %; AAS7 Percent change from baseline, Median (400 mg BID, Week 12): −100.00%; AAS7, Mean (SD) (400 mg QPM, End of Study): 17.46 (29.82); AAS7, Median (400 mg QPM, End of Study): 4.00; AAS7 Change from baseline, Mean (SD) (400 mg QPM, End of Study): −4.04 (35.07); AAS7 Change from baseline, Median (400 mg QPM, End of Study): −8.50; AAS7 Percent change from baseline, Mean (SD) (400 mg QPM, End of Study): −14.64 (160.23) %; AAS7 Percent change from baseline, Median (400 mg QPM, End of Study): −92.00%; AAS7, Median (400 mg QPM, Week 1): 39.00; AAS7 Change from baseline, Mean (SD) (400 mg QPM, Week 1): −18.63 (22.01); AAS7 Change from baseline, Median (400 mg QPM, Week 1): −19.00; AAS7 Percent change from baseline, Mean (SD) (400 mg QPM, Week 1): −30.81 (44.93) %; AAS7 Percent change from baseline, Median (400 mg QPM, Week 1): −35.35%; AAS7, Median (400 mg QPM, Week 2): 31.50; AAS7 Change from baseline, Mean (SD) (400 mg QPM, Week 2): −20.23 (24.12); AAS7 Change from baseline, Median (400 mg QPM, Week 2): −11.00; AAS7 Percent change from baseline, Mean (SD) (400 mg QPM, Week 2): −36.22 (43.96) %; AAS7 Percent change from baseline, Median (400 mg QPM, Week 2): −31.31%; AAS7, Median (400 mg QPM, Week 3): 34.00; AAS7 Change from baseline, Mean (SD) (400 mg QPM, Week 3): −20.88 (26.24); AAS7 Change from baseline, Median (400 mg QPM, Week 3): −13.00; AAS7 Percent change from baseline, Mean (SD) (400 mg QPM, Week 3): −29.46 (63.83) %; AAS7 Percent change from baseline, Median (400 mg QPM, Week 3): −26.00%; AAS7, Median (400 mg QPM, Week 4): 35.00; AAS7 Change from baseline, Mean (SD) (400 mg QPM, Week 4): −23.93 (24.26); AAS7 Change from baseline, Median (400 mg QPM, Week 4): −17.00; AAS7 Percent change from baseline, Mean (SD) (400 mg QPM, Week 4): −46.35 (39.61) %; AAS7 Percent change from baseline, Median (400 mg QPM, Week 4): −46.27%; AAS7, Median (400 mg QPM, Week 5): 23.50; AAS7 Change from baseline, Mean (SD) (400 mg QPM, Week 5): −29.64 (28.55); AAS7 Change from baseline, Median (400 mg QPM, Week 5): −17.00; AAS7 Percent change from baseline, Mean (SD) (400 mg QPM, Week 5): −55.69 (41.16) %; AAS7 Percent change from baseline, Median (400 mg QPM, Week 5): −59.46%; AAS7, Median (400 mg QPM, Week 6): 24.38; AAS7 Change from baseline, Mean (SD) (400 mg QPM, Week 6): −28.36 (28.62); AAS7 Change from baseline, Median (400 mg QPM, Week 6): −23.63; AAS7 Percent change from baseline, Mean (SD) (400 mg QPM, Week 6): −47.92 (45.31) %; AAS7 Percent change from baseline, Median (400 mg QPM, Week 6): −55.14%; AAS7, Median (400 mg QPM, Week 7): 30.00; AAS7 Change from baseline, Mean (SD) (400 mg QPM, Week 7): −26.95 (30.21); AAS7 Change from baseline, Median (400 mg QPM, Week 7): −28.00; AAS7 Percent change from baseline, Mean (SD) (400 mg QPM, Week 7): −33.18 (69.78) %; AAS7 Percent change from baseline, Median (400 mg QPM, Week 7): −50.00%; AAS7, Median (400 mg QPM, Week 8): 18.00; AAS7 Change from baseline, Mean (SD) (400 mg QPM, Week 8): −29.80 (30.38); AAS7 Change from baseline, Median (400 mg QPM, Week 8): −28.00; AAS7 Percent change from baseline, Mean (SD) (400 mg QPM, Week 8): −49.05 (70.23) %; AAS7 Percent change from baseline, Median (400 mg QPM, Week 8): −66.00%; AAS7, Median (400 mg QPM, Week 9): 26.30; AAS7 Change from baseline, Mean (SD) (400 mg QPM, Week 9): −28.66 (27.25); AAS7 Change from baseline, Median (400 mg QPM, Week 9): −29.00; AAS7 Percent change from baseline, Mean (SD) (400 mg QPM, Week 9): −46.39 (66.49) %; AAS7 Percent change from baseline, Median (400 mg QPM, Week 9): −56.26%; AAS7, Median (400 mg QPM, Week 10): 28.00; AAS7 Change from baseline, Mean (SD) (400 mg QPM, Week 10): −28.93 (28.14); AAS7 Change from baseline, Median (400 mg QPM, Week 10): −28.92; AAS7 Percent change from baseline, Mean (SD) (400 mg QPM, Week 10): −46.90 (68.16) %; AAS7 Percent change from baseline, Median (400 mg QPM, Week 10): −50.17%; AAS7, Median (400 mg QPM, Week 11): 30.10; AAS7 Change from baseline, Mean (SD) (400 mg QPM, Week 11): −29.18 (28.09); AAS7 Change from baseline, Median (400 mg QPM, Week 11): −32.40; AAS7 Percent change from baseline, Mean (SD) (400 mg QPM, Week 11): −47.96 (69.01) %; AAS7 Percent change from baseline, Median (400 mg QPM, Week 11): −52.90%; AAS7, Median (400 mg QPM, Week 12): 26.83; AAS7 Change from baseline, Mean (SD) (400 mg QPM, Week 12): −29.03 (28.74); AAS7 Change from baseline, Median (400 mg QPM, Week 12): −28.00; AAS7 Percent change from baseline, Mean (SD) (400 mg QPM, Week 12): −48.34 (71.54) %; AAS7 Percent change from baseline, Median (400 mg QPM, Week 12): −59.34%; AAS7, Mean (SD) (400 mg TID, End of Study): 26.75 (33.68); AAS7, Median (400 mg TID, End of Study): 16.00; AAS7 Change from baseline, Mean (SD) (400 mg TID, End of Study): −21.25 (14.29); AAS7 Change from baseline, Median (400 mg TID, End of Study): −27.00; AAS7 Percent change from baseline, Mean (SD) (400 mg TID, End of Study): −58.11 (43.26) %; AAS7 Percent change from baseline, Median (400 mg TID, End of Study): −66.21%; AAS7, Median (400 mg TID, Week 1): 9.00; AAS7 Change from baseline, Mean (SD) (400 mg TID, Week 1): −28.96 (27.34); AAS7 Change from baseline, Median (400 mg TID, Week 1): −26.00; AAS7 Percent change from baseline, Mean (SD) (400 mg TID, Week 1): −56.39 (51.49) %; AAS7 Percent change from baseline, Median (400 mg TID, Week 1): −89.41%; AAS7, Median (400 mg TID, Week 2): 9.33; AAS7 Change from baseline, Mean (SD) (400 mg TID, Week 2): −30.89 (28.32); AAS7 Change from baseline, Median (400 mg TID, Week 2): −27.00; AAS7 Percent change from baseline, Mean (SD) (400 mg TID, Week 2): −58.84 (53.09) %; AAS7 Percent change from baseline, Median (400 mg TID, Week 2): −81.97%; AAS7, Median (400 mg TID, Week 3): 0.00; AAS7 Change from baseline, Mean (SD) (400 mg TID, Week 3): −33.83 (29.99); AAS7 Change from baseline, Median (400 mg TID, Week 3): −27.00; AAS7 Percent change from baseline, Mean (SD) (400 mg TID, Week 3): −69.93 (48.65) %; AAS7 Percent change from baseline, Median (400 mg TID, Week 3): −100.00%; AAS7, Median (400 mg TID, Week 4): 5.00; AAS7 Change from baseline, Mean (SD) (400 mg TID, Week 4): −36.18 (24.55); AAS7 Change from baseline, Median (400 mg TID, Week 4): −27.00; AAS7 Percent change from baseline, Mean (SD) (400 mg TID, Week 4): −76.56 (30.09) %; AAS7 Percent change from baseline, Median (400 mg TID, Week 4): −93.33%; AAS7, Median (400 mg TID, Week 5): 6.00; AAS7 Change from baseline, Mean (SD) (400 mg TID, Week 5): −37.08 (26.17); AAS7 Change from baseline, Median (400 mg TID, Week 5): −30.00; AAS7 Percent change from baseline, Mean (SD) (400 mg TID, Week 5): −73.55 (35.00) %; AAS7 Percent change from baseline, Median (400 mg TID, Week 5): −88.24%; AAS7, Median (400 mg TID, Week 6): 0.00; AAS7 Change from baseline, Mean (SD) (400 mg TID, Week 6): −32.35 (30.51); AAS7 Change from baseline, Median (400 mg TID, Week 6): −27.00; AAS7 Percent change from baseline, Mean (SD) (400 mg TID, Week 6): −63.91 (58.28) %; AAS7 Percent change from baseline, Median (400 mg TID, Week 6): −100.00%; AAS7, Median (400 mg TID, Week 7): 2.50; AAS7 Change from baseline, Mean (SD) (400 mg TID, Week 7): −32.23 (26.57)
